The source of these data is publication PMC8707700, “Ru(III) Complexes with Lonidamine-Modified Ligands” (International Journal of Molecular Sciences, 2021).

Values joined by “and” are separate entries in the source; they are usually repeats but may differ in a detail not shown here. Equal entries are not always repeated.

This data set has as its system Balb/c mice. Kind of data set: In vivo acute toxicity. The note with it: for Drug-induced lethality, died/survived (n = 6): 21 days. On the procedure:
Finally, we tested the acute toxicity of complex 16 in Balb/c mice after a single bolus i.p. injection of the compound dissolved in saline. […] Animals were monitored for 21 days after injection. […] Mice in these cohorts had normal hair cover; no changes of nutritional behaviour were registered over the entire period of observation. In contrast, doses >80 mg/kg were lethal for individual animals. […] Deaths were registered over the next 1–2 days (Table 5). In each group, the survived animals remained without visible changes for up to 21 days after the injection of 16.
The Balb/c female mice (8–10 weeks old, weight 20–22 g) were bred and hosted at the animal facility of the Blokhin Cancer Center. Mice were kept at 21 ± 1 °C, 50–60% humidity; food and water were added ad libitum. All manipulations were performed in accordance to the European Convention for the Protection of Vertebrate Animals used for Experimental and other Scientific Purposes (ETS 123). Compound 16 was injected i.p.; 70–110 mg/kg single bolus administration in 200 µL of saline. Each cohort contained six mice. Animals were monitored for 21 days after injection. General behavioural activity, nutritional habits, and the integrity of hair cover were the criteria of acute toxicity.

For “Na[trans-Ru(DMSO)(C21H19Cl2N5O)Cl4] [Compound 16]”, the “signs of acute toxicity” value (110 mg/kg i.p., initial 1–2 h after injection) is “Tremor and dyspnoea”. Also, the “Drug-induced lethality, died/survived (n = 6)” value is “no deaths and 0/6 *” (single dose 70 mg/kg i.p., 70 mg/kg); “no deaths and 0/6” (single dose 80 mg/kg i.p., 80 mg/kg); 2/6 (single dose 90 mg/kg i.p.); 2/6 (single dose 100 mg/kg i.p.); 4/6 (single dose 110 mg/kg i.p.).
